Here are results for 80 molecules from the METLIN SMRT retention time set (Domingo-Almenara et al. 2019).

The data set can be described thus: gradient 5% acetonitrile 3 min, to 50% in 2 min, to 85% in 15 min, held 3 min, 100 µL/min. To be noted: column: Zorbax Extend-C18 2.1 x 50 mm; eluents: water / acetonitrile, 0.1% formic acid. The procedure, abridged:
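Standards, all pure, were combined into mixtures of ~100 molecules and run at 100 μL/min on a Zorbax Extend-C18 column (2.1 × 50 mm, 1.8 μm) with water and acetonitrile, each containing 0.1% formic acid. A coupled quadrupole time-of-flight mass spectrometer operated in positive and negative ionization mode. Retention time values come from computationally picked adduct peaks, each inspected manually.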
In the case of `C[C@@H](NCCCc1cccc(C(F)(F)F)c1)c1cccc2ccccc12`, the RP-LC retention time was 828 s. As to `COCCNC(=O)C1Cn2cccc2C(=O)N1CC(C)C` (stereo not given), the RP-LC retention time came out at 624 s. Then `Cc1cnc(Nc2ccc(N3CCN(C)CC3)cc2)nc1Nc1cccc(S(=O)(=O)NC(C)(C)C)c1`, with 608 s; and `CCN1CCN(CCCNC(=O)Cn2c3ccccc3c3cnn(C)c(=O)c32)CC1`, with 560 s; and `c1cc2c(cc1-c1noc(CCC3CCCC3)n1)nnn2CCN1CCOCC1`, with 780 s. In the case of `COc1ccc2c(CCN)c[nH]c2c1` it was 565 s; in that of `Cc1ccc(NC(=O)C2CCN(S(=O)(=O)c3c(C)[nH]c(C)c3C(=O)N3CCCC3)CC2)cc1F`, 753 s; in that of `Cc1cc(C)c2c(n1)sc1c(N3CCC(C(=O)N4CCN(c5ccccn5)CC4)CC3)ncnc12`, 668 s. In the case of `COCCCNC(=O)c1nn(-c2ccc(Cl)cc2)c2c(=O)n(C)cnc12` it was 716 s.

`CCNC(=O)C1CCN(C(=O)Nc2ccc(NC(=O)Nc3ccc(CC)cc3)cc2)CC1` displayed an RP-LC retention time of 733 s. As for `O=C(Nc1ccccc1SCc1nnc(-c2ccccc2)o1)c1ccc(Br)o1`, the RP-LC retention time was found to be 1040 s. Turning to `O=C(NCCC1=CCCCC1)C(=O)NCC1CCN(Cc2ccccc2)CC1`, the RP-LC retention time is 593 s. On to `COc1ccccc1-c1noc(CN2C(=O)COc3cc(Cl)ccc32)n1`, for which the RP-LC retention time came out at 974 s. `Cc1ccc(CC#N)c(-c2c(CC#N)ccc(C)c2C)c1C` had an RP-LC retention time of 1170 s. In the case of `CC(C)(C)CC(=O)N1CC(c2nc(-c3ccccc3)no2)C2(CCOCC2)C1` (stereo not given) it was 904 s; in that of `CCCS(=O)(=O)N1CCCC(Cn2c(C3CC3)nc3cccnc32)C1` (stereo not given), 658 s. Then `CCCN1C(=O)C(CC(=O)N(C)C)Sc2ncccc21` (stereo not given), with 655 s; and `CCOc1cc(C(=O)Nc2nc(-c3ccc4c(c3)NC(=O)CO4)cs2)cc(OCC)c1OCC`, with 1030 s; and `O=C(Cn1ccc2ccc(N3CCOCC3)nc21)NCc1ccc(F)c(Cl)c1`, with 920 s.

In the case of `COc1ccc(Cl)cc1NC(=O)C1CCCN(c2cc(=O)n(C)c(=O)n2C)C1` (stereo not given), the RP-LC retention time is 786 s.

Regarding `CC(NC(=O)c1ccco1)C(=O)NCc1nn(C(C)C)c2ccccc12` (stereo not given), the RP-LC retention time is 712 s. `O=C(C1CCN(c2nnc(-c3ccccc3)o2)CC1)N1CCN(c2ccccc2)CC1` gave an RP-LC retention time of 857 s. On to `CCC1CN2C=NC(N3CCN(C(=O)Nc4ccc(OC)c(F)c4)CC3)=CC2=N1` (stereo not given), for which the RP-LC retention time was found to be 622 s. `O=C(Cn1cnc2nc3c(cc2c1=O)CCCC3)Nc1ccccc1F` gave an RP-LC retention time of 703 s. In the case of `CC(Oc1ccccc1)C(=O)N(C)CCc1noc(-c2ccccc2)n1` (stereo not given) it was 903 s. Then `O=C(c1ccc2c(c1)N(Cc1ccccc1)C(=O)CO2)N1CCN(c2ccccn2)CC1`, with 1230 s; and `CCn1c(C(=O)NCc2ccccc2OC)cc2sccc21`, with 1010 s; and `Cc1noc(C)c1C1CCCN1C(=O)c1cc(-c2ccccc2F)no1` (stereo not given), with 859 s. With `CC(=O)Nc1cc(C(=O)N2CCN(c3cc(C)ccc3C)CC2)c2ccc(C)nc2c1`, the RP-LC retention time is 1250 s. Molecule `COC(=O)C1=CN(c2ccc(OC)cc2)c2cc(F)ccc2S1(=O)=O` returned an RP-LC retention time of 844 s. In the case of `COCCC(=O)N1CCC(N2C(=O)C(OC)C23CCOCC3)CC1` (stereo not given) it was 555 s; in that of `Cc1nc2nc(SCC(=O)NCCCN3CCOCC3)nn2c(C)c1Cc1ccccc1`, 622 s; in that of `Cc1ccc(C)c(C(=O)Nc2cccn3nc(C(C)C)nc23)c1`, 1010 s. Molecule `CCCCn1cc(S(=O)(=O)NCc2ccccc2F)c2cccnc21` yielded an RP-LC retention time of 754 s.

On to `CSc1ccc(CNC(=O)Cn2c(C)cc(-c3nnc(C4CC4)o3)c2C)cc1`, for which the RP-LC retention time turned out to be 816 s. In the case of `Nc1cc(C2CCN(C(=O)c3ccccc3Br)CC2)no1` it was 676 s.

With `CC(C)CCN1CCC(N2CCN(CCc3ccccc3)CC2)C1=O` (stereo not given), the RP-LC retention time came to 565 s.

The molecule `CCOC(=O)C12CC1/C(=N\O)c1ccccc1O2` (stereo not given) yielded an RP-LC retention time of 773 s. In the case of `O=C(Cn1cnc2nc(N3CCC(C(=O)NC4CC4)CC3)sc2c1=O)Nc1ccc(Cl)cc1` it was 686 s.

For `COCCn1cc2c3c(cccc31)CN(C(=O)NCc1ccc(OC)cc1)CC2`, the RP-LC retention time came to 822 s. As to `O=C(Nc1ccc2c(c1)CN(C(=O)c1cccs1)CC2)c1ccccc1C(F)(F)F`, the RP-LC retention time was found to be 821 s.

As to `Cc1sc(C)c(S(=O)(=O)NC2CC2)c1-c1cc(C(F)(F)F)on1`, the RP-LC retention time amounted to 1070 s. `O=C(N[C@H]1C[C@@H]2C[C@H]1N(C(=O)Cc1c(F)cccc1Cl)C2)c1cccnc1` yielded an RP-LC retention time of 695 s. Regarding `O=C(NC1CCc2nnc(C3CC3)n2CC1)c1ccsc1` (stereo not given), the RP-LC retention time is 594 s. Then `CCOc1ccc(-c2nc(NC(=O)c3sc(C)nc3C)sc2C)cc1`, with 976 s.

For the molecule `CCC(COC(=O)c1cc(OC)c(OC)c(OC)c1)(c1ccccc1)N(C)C` (stereo not given), the RP-LC retention time stood at 752 s. The molecule `O=C(Nc1ccccc1C(F)(F)F)N1CCCC1c1nncn1-c1ccccc1` (stereo not given) yielded an RP-LC retention time of 736 s. Then `Cn1c(C2CCN(C(=O)Nc3ccc(F)cc3F)CC2)cc(=O)n2nccc12`, with 647 s; and `CCOC(=O)C1CCN(Cc2cn3c(-c4ccc(OC)cc4)nnc3s2)CC1`, with 563 s.

Consider `O=C(c1ccsc1)N1[C@H]2CC[C@@H]1c1cnc(-c3ccccc3)nc1C2`, for which the RP-LC retention time came to 886 s. In the case of `CC(C)CNC(=O)CCC1CCN(c2cc(NC3CC3)ncn2)CC1` it was 615 s; in that of `CC(=O)Nc1ccc(Br)cc1C(=O)c1ccccc1`, 840 s. The molecule `O=C(c1cc2ccccc2[nH]1)N1CCN(c2ccc(=O)n(-c3ccc(Cl)cc3)n2)CC1` registered an RP-LC retention time of 918 s. With `CS(=O)(=O)N1CCC(OC2CCN(C(=O)Nc3ccccc3C(F)(F)F)CC2)CC1`, the RP-LC retention time is 768 s. In the case of `CC1=NS(=O)(=O)N(C)C=C1C(=O)OCc1nc(-c2ccccc2)no1`, the RP-LC retention time turned out to be 944 s.

Take `CCc1nnc2nc(N3CCN(C(=O)COc4ccc(F)cc4)CC3)cc(C)n12`: the RP-LC retention time turned out to be 621 s. In the case of `O=C(c1cc2ccccc2[nH]1)N1CCN(c2cc(-c3ccccc3)[nH]n2)CC1`, the RP-LC retention time is 792 s.

As for `Cn1ccc(CN2CCC(Cc3ccccc3)CC2)cc1=O`, the RP-LC retention time is 611 s. In the case of `CCc1ccc(NC(=O)Cn2c(N)nc(CC)c(C)c2=O)cc1` it was 639 s; in that of `COCCn1c(SCc2nc(-c3ccc(F)cc3)no2)nc2cc3c(cc2c1=O)OCO3`, 1070 s; in that of `O=C(NC1CC1)[C@@H]1C[C@H](Oc2ccccc2)CN1C(=O)COc1ccccc1`, 797 s.

With `CCCCOc1ccc(-c2nc3ncccn3c2NC2CCCCC2)cc1`, the RP-LC retention time was 957 s. In the case of `COc1ccc(C(=O)N2CCC(c3nc4cccnc4n3C)C2)cc1F` (stereo not given) it was 651 s; in that of `O=C(Nc1cc(-c2cccnc2)no1)c1ccc(F)cc1`, 729 s; in that of `Cc1nc2cccnc2n1C1CCN(C(=O)Nc2ccc(F)cc2F)CC1`, 619 s. Regarding `O=C(CCc1nnn2c1CN(C(=O)c1nccc3ccccc13)CC2)N1CCCC1`, the RP-LC retention time stood at 625 s.

With `COc1ccc(CCNC(=O)NCC2CCN(Cc3ccsc3)CC2)cc1`, the RP-LC retention time was found to be 565 s.

As for `O=C(c1c(F)cccc1Cl)N1CCN(c2nccn2-c2ccccc2F)CC1`, the RP-LC retention time was determined as 574 s. In the case of `Cc1c(-c2ccnc(N3CCN(Cc4ccccc4)CC3)n2)cnc2nc(-c3ccc(Cl)cc3)nn12` it was 796 s.

`CC(C)CN1Cc2ccccc2-n2ccnc2C12CCN(C(=O)c1ccc(F)cc1)CC2` gave an RP-LC retention time of 739 s. `CCC(=O)N1CCc2cc(N3CC(C(=O)Nc4ccc(F)c(F)c4)CC3=O)ccc21` (stereo not given) had an RP-LC retention time of 690 s.

Consider `O=c1nccc(SCc2ccc(Cl)cc2Cl)[nH]1`, for which the RP-LC retention time is 842 s. As to `O[C@@H](c1cc(C(F)(F)F)nc2c(C(F)(F)F)cccc12)[C@@H]1CCCCN1`, the RP-LC retention time worked out at 829 s. `O=C(c1nnc(-c2ccc(S(=O)(=O)N3CCCCC3)cc2)o1)N1CCC(Cc2ccccc2)CC1` came in with an RP-LC retention time of 1230 s. In the case of `Cn1c(=O)c(N2CCN(C(=O)c3ccc(F)cc3Cl)CC2)nc2ccncc21` it was 616 s.

`COc1ccccc1C(=O)N1CCC2(CC1)N=C(c1ccc(Br)cc1)C(=O)N2` gave an RP-LC retention time of 863 s. As to `Cc1ccc2c(Nc3cccc(C#N)c3)c(C(=O)N3CCCC3)cnc2n1`, the RP-LC retention time amounted to 579 s. Then `Cc1ccc(CNC(=O)Cn2nc(C)c3nn(-c4ccccc4)c(-n4cccc4)c3c2=O)o1`, with 946 s; and `O=C(Nc1nnc(Cc2cccs2)o1)c1cc(Cl)sc1Cl`, with 831 s. The molecule `COCCNC(=O)CN1c2ccc(F)cc2-c2ccccc2S1(=O)=O` gave an RP-LC retention time of 756 s.
